From US20230406847A1, “LIGANDS OF PROSTATE SPECIFIC MEMBRANE ANTIGEN (PSMA) CONTAINING HETEROAROMATIC LINKER BUILDING BLOCKS” (ABX ADVANCED B[…] GMBH, priority 2020, published 2023)

test system: human PSMA+ LNCaP cells; test: Internalization of radiolabelled compounds in LNCaP cells; format: cell-based; settings: 0.75 h, 0.03 µM
Protocol: Gallium labeling was carried out using 90 μL HEPES in water (580 mg/mL; ultrapure-grade, Merck, Darmstadt, Germany) mixed with 40 μL of [^68Ga]GaCl3. The pH of the mixture was adjusted to 3.8 to 4.1 with NaOH (30%; ultrapure-grade, Merck, Darmstadt, Germany). Subsequently 1.0 nmol of a synthesized compound of Example 3 to 10 was added and incubated at 98 ° C. for 10 to 15 minutes. For the competitive cell assay, the precursor amount was diminished to 0.5 nmol.
Lutetium labelling was carried out using 115 μL of sodium acetate buffer (400 mM, pH mixed with 10 to 20 MBq [177Lu]LuCl3. Subsequently, 1.0 nmol of a synthesized compound of Example 3 to 10 was added and incubated at 98 ° C. for 20 to 25 minutes.
Cell binding studies were performed using human PSMA+ LNCaP cells (ATCC CRL-1740) cultured in RPMI 1640 medium supplemented with 10% fetal bovine serum (Sera plus, PAN Biotech) and 2 mmol/l stable glutamine (PAN Biotech). Cells were grown at 37° C. in an incubator with humidified air and 5% CO2. Trypsin/EDTA 0.5%/0.02% in PBS (PAN Biotech) was used to harvest cells.
1×10^5 LNCaP cells were seeded in poly-L-lysine coated 24-well-plates for 24 h at 37° C. humidified air with 5% CO2. After removing the medium, cells were incubated with radiolabelled compounds of Example 11 (30 nM) for 45 minutes at 37° C. and at 4° C. respectively. For determination of specific cell uptake, cells were blocked with PMPA (Tocris) at a concentration of 500 μM. The cells were washed three times with 1 ml ice-cold PBS, twice with 500 μl glycine-HCl (50mM; pH 2.8) for 5 min at rt to remove the surface-bound radioactivity and with 1 ml ice-cold PBS. Subsequent the cells were lysed with 0.5 ml 0.3M NaOH. The internalized and the surface-bound fractions were measured in a gammacounter.

For O=C(O)CC[C@H](NC(=O)N[C@@H](CCCCNC(=O)[C@H](Cc1ccc2ccccc2c1)NC(=O)[C@H]1CC[C@H](CNC(=O)CN2CCN(CC(=O)O)CCN(CC(=O)O)CCN(CC(=O)O)CC2)CC1)C(=O)O)C(=O)O [PSMA-617, (3S,10S,14S)-3-[(naphthalen-2-yl)methyl]-1,4,12-trioxo-1-[(1R,4S)-4-[[2-[4,7,10-tris(carboxymethyl)-1,4,7,10-etraazacyclododecan-1-yl]acetamido]methyl]cyclo-hexyl]-2,5,11 ,13-tetraazahexadecane-10,14,16-tricarboxylic acid, reference compound], the “internalisation rate (%)” value was 31.1%.

same assay, conditions: radiolabelled compounds (30 nM), 45 minutes, 37° C. and 4° C., LNCaP cells, specific uptake by blocking with PMPA 500 μM

In order of falling “internalisation rate (%)” value:
1. O=C(O)CC[C@H](NC(=O)N[C@@H](CCCCNC(=O)[C@H](Cc1csc2ccccc12)NC(=O)c1cc(CNC(=O)[C@H](CCCCNc2ccc([N+](=O)[O-])cc2[N+](=O)[O-])NC(=O)CN2CCN(CC(=O)O)CCN(CC(=O)O)CCN(CC(=O)O)CC2)on1)C(=O)O)C(=O)O [Example ABX341]  61.3%
2. O=C(O)CC[C@H](NC(=O)N[C@@H](CCCCNC(=O)[C@H](Cc1ccc2ccccc2c1)NC(=O)c1cc(CNC(=O)[C@H](CCCCNc2ccc([N+](=O)[O-])cc2[N+](=O)[O-])NC(=O)CN2CCN(CC(=O)O)CCN(CC(=O)O)CCN(CC(=O)O)CC2)on1)C(=O)O)C(=O)O [Example ABX339]  60.6%
3. O=C(O)CC[C@H](NC(=O)N[C@@H](CCCCNC(=O)[C@H](Cc1ccc2ccccc2c1)NC(=O)c1ccc(CNC(=O)CN2CCN(CC(=O)O)CCN(CC(=O)O)CCN(CC(=O)O)CC2)nc1)C(=O)O)C(=O)O [Example ABX289]  55.7%
4. O=C(O)CC[C@H](NC(=O)N[C@@H](CCCCNC(=O)[C@H](Cc1csc2ccccc12)NC(=O)c1cc(CNC(=O)[C@H](CCCCNC(=O)c2ccc(I)cc2)NC(=O)CN2CCN(CC(=O)O)CCN(CC(=O)O)CCN(CC(=O)O)CC2)on1)C(=O)O)C(=O)O [Example ABX346]  46.7%
5. O=C(O)CC[C@H](NC(=O)N[C@@H](CCCCNC(=O)[C@H](Cc1ccc2ccccc2c1)NC(=O)c1ccc(CNC(=O)CN2CCN(CC(=O)O)CCN(CC(=O)O)CCN(CC(=O)O)CC2)s1)C(=O)O)C(=O)O [Example ABX272]  41.4%
6. O=C(O)CC[C@H](NC(=O)N[C@@H](CCCCNC(=O)[C@H](Cc1csc2ccccc12)NC(=O)c1cc(CNC(=O)CN2CCN(CC(=O)O)CCN(CC(=O)O)CCN(CC(=O)O)CC2)on1)C(=O)O)C(=O)O [Example ABX338]  40.8%
7. Cc1nc(CNC(=O)CN2CCN(CC(=O)O)CCN(CC(=O)O)CCN(CC(=O)O)CC2)sc1C(=O)N[C@@H](Cc1ccc2ccccc2c1)C(=O)NCCCC[C@H](NC(=O)N[C@@H](CCC(=O)O)C(=O)O)C(=O)O [Example ABX271]  37.8%
8. O=C(O)CC[C@H](NC(=O)N[C@@H](CCCCNC(=O)[C@H](Cc1ccc2ccccc2c1)NC(=O)c1cc(CNC(=O)CN2CCN(CC(=O)O)CCN(CC(=O)O)CCN(CC(=O)O)CC2)on1)C(=O)O)C(=O)O [Example ABX288]  33.2%
